Data from ChEMBL document CHEMBL1201862, “PubChem BioAssay data set” (2004).
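The compound was tested at five concentrations on cells cultured in 96-well plates, with a 48-hour exposure period. At the GI50, growth is halved.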 Calls of active or inactive are those of the source. Cut-off read from the data, not from the text of the source: active = GI50 up to about 1.1 µM and inactive = higher.

How the values were obtained:
Test in all cases: growth of human tumour cells (NCI), 48 h
[1] = system: 786-0
[2] = system: CCRF-CEM
[3] = system: COLO 205
[4] = system: EKVX
[5] = system: HCC 2998
[6] = system: HL-60
[7] = system: HOP-62
[8] = system: M14
[9] = system: Malme-3M
[10] = system: NCI-H23
[11] = system: NCI-H522
[12] = system: OVCAR-5
[13] = system: OVCAR-8
[14] = system: RPMI-8226
[15] = system: SF-268
[16] = system: SF-295
[17] = system: SF-539
[18] = system: LXFL 529
[19] = system: SNB-78
[20] = system: KM-20L2

SMILES | GI50 [1] | GI50 [2] | GI50 [3] | GI50 [4] | GI50 [5] | GI50 [6] | GI50 [7] | GI50 [8] | GI50 [9] | GI50 [10] | GI50 [11] | GI50 [12] | GI50 [13] | GI50 [14] | GI50 [15] | GI50 [16] | GI50 [17] | GI50 [18] | GI50 [19] | GI50 [20]
COc1cc2c(c3oc4c(O)cccc4c(=O)c13)CC(C(C)(O)CCl)O2 (stereo unspecified) | 0.889 µM (active) | 0.0277 µM (active) | 0.373 µM (active) | 5.52 µM (inactive) | 1.32 µM (inactive) | 0.115 µM (active) | 0.733 µM (active) | 0.256 µM (active) | 2.06 µM (inactive) | 0.512 µM (active) | 1.73 µM (inactive) | 6.34 µM (inactive) | 0.219 µM (active) | 0.0661 µM (active) | 0.0728 µM (active) | 1.92 µM (inactive) | 0.443 µM (active) |  |  | 
CSC1=NN=C(SC)NN1 | 0.182 µM (active) | 0.0243 µM (active) | 0.198 µM (active) | 0.186 µM (active) | 0.378 µM (active) | 0.0369 µM (active) | 0.201 µM (active) | 0.184 µM (active) | 0.151 µM (active) | 0.285 µM (active) | 0.214 µM (active) | 0.179 µM (active) | 0.285 µM (active) | 0.261 µM (active) | 0.189 µM (active) | 0.198 µM (active) | 0.205 µM (active) |  |  | 
CCOC(=O)c1oc2ccc(OC)c3c2c1CCC3 | > 100 µM (inactive) | 46.7 µM (inactive) | > 100 µM (inactive) | > 100 µM (inactive) | > 100 µM (inactive) | > 100 µM (inactive) | > 100 µM (inactive) | > 100 µM (inactive) | > 100 µM (inactive) | 59.6 µM (inactive) | 67.3 µM (inactive) | 44.7 µM (inactive) | > 100 µM (inactive) | > 100 µM (inactive) | > 100 µM (inactive) | > 100 µM (inactive) | > 100 µM (inactive) | 65.6 µM (inactive) | > 100 µM (inactive) | 
Cc1nc2c3c(ccc2nc1O)C(=O)c1ccccc1C3=O | > 100 µM (inactive) |  | > 100 µM (inactive) | 23.1 µM (inactive) | > 100 µM (inactive) | > 100 µM (inactive) | 40.4 µM (inactive) | > 100 µM (inactive) | > 100 µM (inactive) | 66.7 µM (inactive) | 7.18 µM (inactive) | > 100 µM (inactive) | 80 µM (inactive) |  | 15.6 µM (inactive) | > 100 µM (inactive) | 40.8 µM (inactive) | 70 µM (inactive) |  | > 100 µM (inactive)
S=c1[nH]c2c(Cl)c(Cl)c(Cl)c(Cl)c2[nH]1 | 26.2 µM (inactive) | 1.16 µM (inactive) | 17.2 µM (inactive) | 11.8 µM (inactive) | 0.955 µM (active) | 1.75 µM (inactive) | 25.1 µM (inactive) | 21.4 µM (inactive) | 14.9 µM (inactive) | 29.2 µM (inactive) | 1.2 µM (inactive) | 25.8 µM (inactive) | 23.2 µM (inactive) | 3.52 µM (inactive) | 12.1 µM (inactive) | 17.5 µM (inactive) | 12.1 µM (inactive) |  |  | 
Cc1ccc2c(c1)CNc1ccc(C)cc1CN2 | > 100 µM (inactive) | > 100 µM (inactive) | > 100 µM (inactive) | > 100 µM (inactive) |  | > 100 µM (inactive) | > 100 µM (inactive) | > 100 µM (inactive) |  | > 100 µM (inactive) | > 100 µM (inactive) | > 100 µM (inactive) | > 100 µM (inactive) | > 100 µM (inactive) | > 100 µM (inactive) | > 100 µM (inactive) | > 100 µM (inactive) | > 100 µM (inactive) | > 100 µM (inactive) | 
CO[C@@H]1C[C@H](OC(N)=O)[C@@H]2C=C[C@@H]3/C=C(C)/C=C/[C@@H](C)[C@H]([C@H](C)[C@H](O)[C@@H](C)NC(C)=O)OC(=O)/C=C/C=C(C)\C=C\[C@]3(C)[C@@H]2C1 | < 0.01 µM (active) | 0.322 µM (active) | < 0.01 µM (active) | 1.24 µM (inactive) | < 0.01 µM (active) | < 0.01 µM (active) | < 0.01 µM (active) | < 0.01 µM (active) | < 0.01 µM (active) | 0.522 µM (active) | < 0.01 µM (active) | 1.42 µM (inactive) | 0.22 µM (active) | < 0.01 µM (active) | 0.767 µM (active) | < 0.01 µM (active) | < 0.01 µM (active) |  |  | 
CCOC(=O)C1(C/C=C(/C)Cl)CCCC1=O (stereo unspecified) | > 100 µM (inactive) | > 100 µM (inactive) | > 100 µM (inactive) | > 100 µM (inactive) |  | 86.5 µM (inactive) | > 100 µM (inactive) | > 100 µM (inactive) | > 100 µM (inactive) | > 100 µM (inactive) | > 100 µM (inactive) | > 100 µM (inactive) | > 100 µM (inactive) | 26.9 µM (inactive) | > 100 µM (inactive) | > 100 µM (inactive) | > 100 µM (inactive) | > 100 µM (inactive) |  | 47.6 µM (inactive)
COC(=O)C1Cc2c([nH]c3ccccc23)C(C2CCCCC2)N1 (stereo unspecified) | > 100 µM (inactive) | > 100 µM (inactive) | > 100 µM (inactive) | > 100 µM (inactive) | > 100 µM (inactive) | > 100 µM (inactive) |  | > 100 µM (inactive) | > 100 µM (inactive) | > 100 µM (inactive) | > 100 µM (inactive) | > 100 µM (inactive) | > 100 µM (inactive) |  | > 100 µM (inactive) | > 100 µM (inactive) | > 100 µM (inactive) | > 100 µM (inactive) |  | > 100 µM (inactive)
CSC12c3cc(C)n(-c4ccc(I)cc4)c3CC(C)(C)CN1C(=O)C2Oc1ccccc1 (stereo unspecified) | > 100 µM (inactive) | > 100 µM (inactive) | > 100 µM (inactive) | > 67 µM (inactive) | > 100 µM (inactive) | 93.3 µM (inactive) | > 100 µM (inactive) | > 100 µM (inactive) | > 100 µM (inactive) | > 100 µM (inactive) | > 100 µM (inactive) | > 100 µM (inactive) | > 100 µM (inactive) | > 71.1 µM (inactive) | > 100 µM (inactive) | > 100 µM (inactive) | > 100 µM (inactive) |  |  | 
NC(CCc1nc(-c2ccccc2)cs1)C(=O)O (stereo unspecified) | 81.7 µM (inactive) | > 100 µM (inactive) | > 100 µM (inactive) | > 100 µM (inactive) | > 100 µM (inactive) | > 100 µM (inactive) |  | > 100 µM (inactive) | > 100 µM (inactive) | > 100 µM (inactive) | > 100 µM (inactive) |  | > 100 µM (inactive) | > 100 µM (inactive) |  | > 100 µM (inactive) | > 100 µM (inactive) | > 100 µM (inactive) | > 100 µM (inactive) | 
Cc1cs/c(=N\C(P(=O)(O)O)P(=O)(O)O)n1C | 90.8 µM (inactive) | > 100 µM (inactive) | > 100 µM (inactive) | > 100 µM (inactive) | > 100 µM (inactive) | < 0.01 µM (active) | > 100 µM (inactive) | > 100 µM (inactive) | > 100 µM (inactive) | > 100 µM (inactive) | > 100 µM (inactive) | > 100 µM (inactive) | > 100 µM (inactive) | > 100 µM (inactive) | > 100 µM (inactive) | > 100 µM (inactive) | > 100 µM (inactive) |  |  | 
C[C@@H]1OCC(O)C([C@H]2OC(c3ccccc3)=N[C@H]2CO)O1 (stereo partly specified) | > 100 µM (inactive) | > 100 µM (inactive) | > 100 µM (inactive) | > 100 µM (inactive) | > 100 µM (inactive) | > 100 µM (inactive) | > 100 µM (inactive) | > 100 µM (inactive) | > 100 µM (inactive) | > 100 µM (inactive) | > 100 µM (inactive) | > 100 µM (inactive) | > 100 µM (inactive) | > 100 µM (inactive) | > 100 µM (inactive) | > 100 µM (inactive) | > 100 µM (inactive) |  |  | 
COC1=CC(=O)[C@H]2[C@H](C)C(c3ccccc3)[C@@]2(C)C1=O (stereo partly specified) | > 100 µM (inactive) | > 100 µM (inactive) | > 100 µM (inactive) | > 100 µM (inactive) | > 100 µM (inactive) | > 100 µM (inactive) | > 100 µM (inactive) | > 100 µM (inactive) | > 100 µM (inactive) | > 100 µM (inactive) | > 100 µM (inactive) | > 100 µM (inactive) | > 100 µM (inactive) | > 100 µM (inactive) | > 100 µM (inactive) | > 100 µM (inactive) | > 100 µM (inactive) | > 100 µM (inactive) | > 100 µM (inactive) | 
O=C1O/C(=C\c2ccc(O)c(Br)c2)C(c2ccc(O)cc2)=C1Cl | 42 µM (inactive) | 0.849 µM (active) | 47.5 µM (inactive) | 32.6 µM (inactive) | 39.1 µM (inactive) | 43.6 µM (inactive) | 46.7 µM (inactive) | 36.1 µM (inactive) | 38.5 µM (inactive) | 22.4 µM (inactive) | 26.5 µM (inactive) | 51.3 µM (inactive) | 42.5 µM (inactive) | 10.1 µM (inactive) | 27.7 µM (inactive) | 40.5 µM (inactive) | 40.6 µM (inactive) |  |  | 
CC(C)=CCC/C(C)=C\CC/C(C)=C/CO | 17.4 µM (inactive) | 19.5 µM (inactive) | 40.1 µM (inactive) | 30.6 µM (inactive) | 22.6 µM (inactive) | 17.1 µM (inactive) | 19.6 µM (inactive) | 16.5 µM (inactive) | 18.2 µM (inactive) | 23.8 µM (inactive) | 14.2 µM (inactive) | > 100 µM (inactive) | 21.6 µM (inactive) | 14.7 µM (inactive) | 37.2 µM (inactive) | 23.1 µM (inactive) | 21 µM (inactive) |  |  | 
